Assay results taken from patent publication US20260076923A1, “METHOD AND COMPOSITION TO REDUCE OR INHIBIT ADVANCED GLYCATION END-PRODUCTS” (NANJING NUTRABUILDING BIO-TECH CO., LTD., priority 2023, published 2026).

What was measured:
GSH-Px = GSH-Px activity in skin of D-galactose-injected mice; type: in vivo, Kunming mice; settings: end of the trial (14th week), 100 mg/kg each s.c. once daily for 6 weeks, compared to non-supplementation group, FIG. 8
Description: (§1) Six-week-old, male, Kunming mice (n=40), weighed about 30±2 g, were obtained from Cavens Lab Animal (Changzhou, China) and housed in a controlled room (25±2° C., 60% relative humidity, 12 h light/dark cycle) with free access to water and standard laboratory diet. After an acclimation period (1 week), mice were randomly divided into four groups. Each mouse's back skin was chosen as the experimental observation area, a razor was used to shave off the back hair. 5% sodium sulfide solution was applied to the back to remove the hair.
(§2) All mice were then injected subcutaneously with same volume of D-galactose (1000 mg/kg), once a day for 8 weeks. During the entire experiment, the daily food intake and weight of each mouse were recorded every day, and the D-galactose injection dose were adjusted according to the weight change.
(§3) The four groups were non-supplement group (Con, Group 1); THC supplement group (100 mg/kg, Group 2); EGT supplement group (100 mg/kg, Group 3); and EGT+THC supplement group (100 mg/kg EGT+100 mg/kg THC, Group 4). Mice in groups 2-4 were injected subcutaneously (s.c.) into their back skins with the corresponding concentration before each major meal once daily for 6 weeks. […]
(§4) Oxidative stress is increased during aging. […] The levels of H2O2, SOD, CAT, GSH, and GSH-Px in the skin were detected with relative kits as reference. […]

CAT = CAT activity in skin of D-galactose-injected mice; type: in vivo, Kunming mice; settings: end of the trial (14th week), 100 mg/kg each s.c. once daily for 6 weeks, compared to non-supplementation group, FIG. 6
Description: as §1, §2, §3, §4

GSH = GSH activity in skin of D-galactose-injected mice; type: in vivo, Kunming mice; settings: end of the trial (14th week), 100 mg/kg each s.c. once daily for 6 weeks, compared to non-supplementation group, FIG. 7
Description: as §1, §2, §3, §4

SOD = SOD activity in skin of D-galactose-injected mice; type: in vivo, Kunming mice; settings: end of the trial (14th week), 100 mg/kg each s.c. once daily for 6 weeks, compared to non-supplementation group, FIG. 5
Description: as §1, §2, §3, §4

AGEs = experiment: Measurement of glycation: BSA incubated with D-ribose, fluorescence of the AGEs; type: biochemical, bovine; settings: BSA 1 mg/ml + D-ribose 10 mM in PBS, 37° C., 10 days; THC 10 mM and/or EGT 10 mM; λex=380 nm, λem=450 nm; FIG. 1
Description: The formulation of glycation products was observed placing together a bovine serum albumin (BSA) and D-ribose in the absence of THC and EGT, and in the presence of THC only, EGT only and THC and EGT combination.
Specifically, a solution of BSA at a concentration of 1 mg/ml dissolved in phosphate-buffered saline (PBS) was incubated at 37° C. for 10 days with D-ribose at a concentration of 10 mM, in the absence of THC and EGT (Group 1), and the presence of THC only (10 mM, Group 2), EGT only (10 mM, Group 3) and the THC (10 mM) and EGT (10 mM) combination (Group 4).
So, the glycation was evaluated by measuring the fluorescence of the AGEs at λem=450 nm emitted by each sample after excitation at λex=380 nm. The inhibition of glycation was visualized by the decrease in fluorescence compared with the samples treated with the sugar alone.

C[N+](C)(C)[C@@H](Cc1c[nH]c(=S)[nH]1)C(=O)[O-] [EGT, ergothioneine]
GSH-Px activity (GSH-Px): significantly improved
CAT activity (CAT): significantly improved
GSH activity (GSH): significantly improved
SOD activity (SOD): significantly improved
percentage inhibition of fluorescence of the AGEs relative to the control (anti-glycation activity) (AGEs): fabulous anti-glycation activity
